Measurements taken from the CheMixHub viscosity set.

Assay: xn = mol fraction of the nth substance listed

CCCCOCCO + CCCCCCC
viscosity [mPa·s], 101 kPa
Conditions	303.15 K	313.15 K
x1 = 0.0365	0.407	0.364
x1 = 0.1077	0.484	0.426
x1 = 0.2126	0.626	0.534
x1 = 0.316	0.799	0.661
x1 = 0.417	0.987	0.797
x1 = 0.5114	1.177	0.941
x1 = 0.6155	1.411	1.116
x1 = 0.7469	1.741	1.359
x1 = 0.845	2.011	1.55
x1 = 0.9057	2.162	1.654
x1 = 0.9663	2.306	1.784

CCOC(=O)CCl + CCCCCCCC
viscosity [mPa·s], 101.33 kPa
Conditions	x1 = 0.1027	x1 = 0.2003	x1 = 0.3048	x1 = 0.4033	x1 = 0.5064	x1 = 0.6021	x1 = 0.7042	x1 = 0.8031	x1 = 0.9017
298.15 K	0.524	0.553	0.586	0.618	0.666	0.718	0.782	0.855	0.953
303.15 K	0.493	0.518	0.551	0.577	0.621	0.669	0.723	0.796	0.884
308.15 K	0.465	0.487	0.519	0.541	0.584	0.624	0.676	0.741	0.82

COC(=O)c1ccccc1 + CCCCCCCC
101 kPa
Conditions	viscosity [mPa·s]
298.15 K, x2 = 0.0356	1.698
298.15 K, x2 = 0.0736	1.572
298.15 K, x2 = 0.1081	1.474
298.15 K, x2 = 0.1549	1.349
298.15 K, x2 = 0.1926	1.265
298.15 K, x2 = 0.2388	1.169
298.15 K, x2 = 0.3669	0.961
298.15 K, x2 = 0.4093	0.905
298.15 K, x2 = 0.4513	0.855
298.15 K, x2 = 0.5041	0.796
298.15 K, x2 = 0.55	0.754
298.15 K, x2 = 0.6034	0.707
298.15 K, x2 = 0.6567	0.669
298.15 K, x2 = 0.7105	0.634
298.15 K, x2 = 0.7575	0.606
298.15 K, x2 = 0.8645	0.558
298.15 K, x2 = 0.9387	0.533
308.15 K, x2 = 0.0548	1.358
308.15 K, x2 = 0.0935	1.263
308.15 K, x2 = 0.1329	1.177
308.15 K, x2 = 0.1743	1.099
308.15 K, x2 = 0.216	1.026
308.15 K, x2 = 0.2531	0.967
308.15 K, x2 = 0.2946	0.909
308.15 K, x2 = 0.341	0.852
308.15 K, x2 = 0.3823	0.806
308.15 K, x2 = 0.4247	0.763
308.15 K, x2 = 0.4738	0.719
308.15 K, x2 = 0.5182	0.685
308.15 K, x2 = 0.5728	0.645
308.15 K, x2 = 0.6245	0.612
308.15 K, x2 = 0.6742	0.583
308.15 K, x2 = 0.7274	0.558
308.15 K, x2 = 0.774	0.536
308.15 K, x2 = 0.8351	0.512
308.15 K, x2 = 0.9135	0.486
318.15 K, x2 = 0.0668	1.147
318.15 K, x2 = 0.0719	1.139
318.15 K, x2 = 0.112	1.068
318.15 K, x2 = 0.1404	1.022
318.15 K, x2 = 0.1952	0.94
318.15 K, x2 = 0.2418	0.876
318.15 K, x2 = 0.2828	0.823
318.15 K, x2 = 0.3337	0.764
318.15 K, x2 = 0.3678	0.729
318.15 K, x2 = 0.4175	0.682
318.15 K, x2 = 0.463	0.644
318.15 K, x2 = 0.5158	0.605
318.15 K, x2 = 0.5624	0.576
318.15 K, x2 = 0.6149	0.548
318.15 K, x2 = 0.6664	0.525
318.15 K, x2 = 0.7241	0.502
318.15 K, x2 = 0.7767	0.485
318.15 K, x2 = 0.8373	0.468
318.15 K, x2 = 0.8921	0.453

c1ccc2c(c1)CCCC2 + CCCCCCCC
viscosity [mPa·s], 101 kPa
Conditions	x2 = 0.0997	x2 = 0.2011	x2 = 0.3013	x2 = 0.3997	x2 = 0.5003	x2 = 0.5995	x2 = 0.7001	x2 = 0.8014	x2 = 0.8955
293.15 K	1.831	1.527	1.303	1.143	0.976	0.85	0.747	0.673	0.612
298.15 K	1.675	1.405	1.207	1.063	0.918	0.811	0.702	0.635	0.58
303.15 K	1.533	1.294	1.118	0.989	0.857	0.762	0.662	0.599	0.55
313.15 K	1.308	1.117	0.971	0.866	0.757	0.675	0.592	0.539	0.496

CCOC(=O)CCl + CCCCCCCCC
viscosity [mPa·s], 101.33 kPa
Conditions	x1 = 0.1004	x1 = 0.2033	x1 = 0.3013	x1 = 0.4018	x1 = 0.5019	x1 = 0.6012	x1 = 0.7037	x1 = 0.8037	x1 = 0.9012
298.15 K	0.66	0.665	0.686	0.716	0.755	0.799	0.849	0.907	0.982
303.15 K	0.62	0.623	0.644	0.67	0.705	0.743	0.792	0.842	0.912
308.15 K	0.58	0.583	0.602	0.624	0.654	0.688	0.735	0.778	0.843

c1ccc2c(c1)CCCC2 + CCCCCCCCC
viscosity [mPa·s], 101 kPa
Conditions	x2 = 0.1063	x2 = 0.2018	x2 = 0.3066	x2 = 0.4057	x2 = 0.5014	x2 = 0.6005	x2 = 0.704	x2 = 0.7942	x2 = 0.8898
293.15 K	1.814	1.585	1.352	1.198	1.082	0.976	0.89	0.826	0.784
298.15 K	1.653	1.45	1.254	1.111	1.006	0.908	0.833	0.775	0.735
303.15 K	1.518	1.334	1.151	1.034	0.937	0.848	0.777	0.728	0.69
313.15 K	1.308	1.148	0.997	0.905	0.821	0.749	0.69	0.649	0.615
